The target in this assay is T1, ULK1 (Homo sapiens, UniProt O75385).
T1 sequence (O75385 1-1050): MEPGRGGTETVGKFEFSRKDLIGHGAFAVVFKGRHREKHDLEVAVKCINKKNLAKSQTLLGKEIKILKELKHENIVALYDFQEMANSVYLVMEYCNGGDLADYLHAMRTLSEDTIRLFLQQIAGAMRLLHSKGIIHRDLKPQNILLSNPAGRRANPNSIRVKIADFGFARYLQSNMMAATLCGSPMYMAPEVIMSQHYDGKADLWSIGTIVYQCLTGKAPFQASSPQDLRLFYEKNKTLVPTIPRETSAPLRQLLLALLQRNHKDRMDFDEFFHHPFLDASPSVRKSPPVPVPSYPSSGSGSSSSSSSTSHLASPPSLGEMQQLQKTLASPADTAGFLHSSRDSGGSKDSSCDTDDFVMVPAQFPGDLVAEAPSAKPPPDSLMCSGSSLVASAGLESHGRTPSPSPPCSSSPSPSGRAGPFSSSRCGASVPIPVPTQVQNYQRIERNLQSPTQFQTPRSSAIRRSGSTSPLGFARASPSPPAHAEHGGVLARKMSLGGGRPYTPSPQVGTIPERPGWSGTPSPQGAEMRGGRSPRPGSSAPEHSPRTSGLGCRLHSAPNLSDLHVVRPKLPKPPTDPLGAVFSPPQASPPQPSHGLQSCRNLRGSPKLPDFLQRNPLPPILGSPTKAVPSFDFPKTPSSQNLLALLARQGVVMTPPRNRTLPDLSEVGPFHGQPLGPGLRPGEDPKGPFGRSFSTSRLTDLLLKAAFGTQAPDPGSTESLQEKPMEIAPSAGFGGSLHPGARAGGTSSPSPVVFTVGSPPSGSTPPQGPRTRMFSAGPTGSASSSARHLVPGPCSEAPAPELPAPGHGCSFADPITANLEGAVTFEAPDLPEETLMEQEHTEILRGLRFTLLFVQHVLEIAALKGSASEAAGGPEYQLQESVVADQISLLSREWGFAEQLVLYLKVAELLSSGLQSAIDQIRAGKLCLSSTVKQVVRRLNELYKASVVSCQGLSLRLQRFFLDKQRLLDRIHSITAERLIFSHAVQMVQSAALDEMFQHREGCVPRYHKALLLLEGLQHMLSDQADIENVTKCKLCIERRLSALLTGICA
The assay is described as follows: ULK1 inhibition assay. The assay is classed as biochemical. The conditions noted are these: * = tested as a mixture of regioisomers.

The structures appear in SMILES notation.

For the molecule `O=c1[nH]c2ncc(Nc3nc(Nc4ccc5c(c4)OCCO5)ncc3Br)cc2o1` [Compound 192], the IC50 was less than 200 nM. Under `COc1cccc(Nc2nc(Nc3ccc(OC(F)(F)F)c(Cl)c3)ncc2C(F)(F)F)c1` [136*] stands greater than 2000 nM; under `O=C1CCc2cc(Nc3ncc(C(F)(F)F)c(NC4CCCC4)n3)ccc2N1` [Compound 160a], less than 200 nM; under `O=C1CCc2cc(Nc3ncc(C(F)(F)F)c(Nc4ccc5[nH]ncc5c4)n3)ccc2N1` [Compound 185], less than 200 nM.

As for `COc1cc(Nc2ncc(Br)c(Oc3cccc4ccncc34)n2)cc(OC)c1OC` [Compound 351], the IC50 is greater than 2000 nM. For the molecule `COc1cc(Nc2ncc(Br)c(Oc3ccccc3O)n2)cc(OC)c1OC` [Compound 336], the half-maximal inhibitory concentration (IC50) is greater than 2000 nM. The value for `Oc1ncc(C(F)(F)F)c(NC2CC2)n1` [Compound 189] was greater than 2000 nM. The value for `CNc1nc(Nc2cnc3[nH]ccc3c2)ncc1C(F)(F)F` [Compound 182a] was less than 200 nM; that for `O=c1[nH][nH]c(=O)c2cc(Nc3ncc(C(F)(F)F)c(NC4CC4)n3)ccc12` [Compound 334] was less than 200 nM; that for `Brc1cnc(Nc2ccc3[nH]ccc3c2)nc1Nc1ccccn1` [Compound 154] was less than 200 nM.

Take `COc1cc(Nc2ncc(Br)c(Nc3ccccc3CO)n2)cc(OC)c1OC` [Compound 303]: the IC50 is less than 200 nM. Under `COc1cc(Nc2ncc(Cl)c(N(C)C(=O)c3ccccc3O)n2)cc(OC)c1OC` [Compound 234b] stands 200 to 2000 nM. Under `O=C1CCc2cc(Nc3ncc(C(F)(F)F)c(NCCO)n3)ccc2N1` [Compound 197] stands less than 200 nM. Under `O=C1CCc2cc(Nc3nc(OC4Cc5ccccc5C4)ncc3C(F)(F)F)ccc2N1` [Compound 180b] stands greater than 2000 nM; under `O=C1CCc2cc(Nc3ncc(C(F)(F)F)c(NC4CNC4)n3)ccc2N1` [Compound 198a], 200 to 2000 nM; under `CNC(=O)c1cccc(Oc2nc(Nc3cc(OC)c(OC)c(OC)c3)ncc2Br)c1` [Compound 242], 200 to 2000 nM. Consider `CNC(=O)c1ccccc1Oc1nc(Nc2cc(OC)ccc2C)ncc1C(F)(F)F` [Compound 101], for which the IC50 is greater than 2000 nM. As for `FC(F)(F)c1cnc(Nc2cnc3ccccc3c2)nc1NC1CC1` [Compound 275], the IC50 is less than 200 nM.

For `O=C1NC(=O)c2cc(Nc3ncc(C(F)(F)F)c(NC4CC4)n3)ccc21` [Compound 314], the IC50 is less than 200 nM.

As for `O=C1CCc2cc(Nc3ncc(C(F)(F)F)c(SCc4ccccc4)n3)ccc2N1` [Compound 62], the IC50 is less than 200 nM. Under `CNC(=O)c1ccccc1Nc1nc(Nc2cc(OC)ccc2C)ncc1C(F)(F)F` [Compound 42] stands less than 200 nM; under `COc1cc(Nc2ncc(Br)c(Nc3ccccn3)n2)cc(OC)c1OC` [Compound 22], less than 200 nM; under `CNC(=O)c1ccccc1Oc1nc(Nc2ccc(Cl)c(Cl)c2)ncc1C(F)(F)F` [Compound 108a], greater than 2000 nM. The value for `CNC(=O)c1ccccc1Nc1nc(Nc2cc(OC)c(OC)c(OC)c2)ncc1-c1ccccc1` [Compound 73] was less than 200 nM; that for `NCCCNc1nc(Nc2ccc3c(c2)CCC(=O)N3)ncc1C(F)(F)F` [Compound 313] was less than 200 nM; that for `O=C1CCc2cc(Nc3ncc(C(F)(F)F)c(Nc4nccs4)n3)ccc2N1` [Compound 58] was greater than 2000 nM. Take `O=c1[nH]c2ccc(Nc3nccc(NC4CC4)n3)cc2[nH]1` [Compound 232]: the IC50 was greater than 2000 nM. Under `CNC(=O)c1ccccc1Nc1nc(Nc2cc(OC)ccc2C)ncc1Cl` [Compound 16] stands less than 200 nM; under `CNC(=O)c1ccccc1Nc1nc(Nc2ccc(N3CCOCC3)cc2OC)ncc1C(F)(F)F` [Compound 39], less than 200 nM; under `COc1ccc(C)c(Nc2ncc(Cl)c(Nc3cccc(S(=O)(=O)N(C)C)c3)n2)c1` [Compound 45], greater than 2000 nM. Under `O=C1CCc2cc(Nc3ncc(Br)c(NC4CC4)n3)ccc2N1` [Compound 159] stands less than 200 nM; under `COCCNc1ncc(C(F)(F)F)c(Nc2ccc3c(c2)CCC(=O)N3)n1` [Compound 151b], less than 200 nM; under `CNC(=O)c1ccccc1Nc1nc(Nc2cc3c(cc2C)OCO3)ncc1Cl` [Compound 57], less than 200 nM.

On to `Oc1nc(Nc2cnc3[nH]ccc3c2)ncc1C(F)(F)F` [Compound 326], for which the IC50 is greater than 2000 nM. Under `CNC(=O)c1ccccc1Nc1nc(Nc2ccc3c(c2)OCCO3)ncc1Cl` [Compound 51] stands less than 200 nM; under `FC(F)(F)c1cnc(Nc2ccc3[nH]ccc3c2)nc1NC1CC1` [Compound 206], less than 200 nM. Under `COc1cccc(Nc2nc(Nc3ccc4c(c3)OCCO4)ncc2C(F)(F)F)c1` [Compound 133] stands less than 200 nM; under `O=C1CCc2cc(Nc3ncc(C(F)(F)F)c(Nc4ccc5c(c4)OCO5)n3)ccc2N1` [124*], less than 200 nM.

On to `O=C1Cc2cc(Nc3ncc(C(F)(F)F)c(NC4CC4)n3)ccc2N1` [Compound 240], for which the IC50 was less than 200 nM. Under `N#Cc1cnc(NC2CC2)nc1Nc1ccc2c(c1)CCC(=O)N2` [Compound 287] stands greater than 2000 nM. Under `CN(c1nc(Nc2ccc3c(c2)CCC(=O)N3)ncc1C(F)(F)F)C1CC1` [Compound 202] stands less than 200 nM.

Consider `COc1cc(Nc2ncc(Br)c(Oc3ccccc3C(=O)N3CCCC3)n2)cc(OC)c1OC` [Compound 277], for which the IC50 was less than 200 nM. The value for `FC(F)(F)c1cnc(N2CCC2)nc1Nc1ccc2c(c1)OCO2` [Compound 166a] was greater than 2000 nM. Under `CNC(=O)c1ccccc1Nc1nc(Nc2cc(OC)c(OC)c(OC)c2)ncc1Cl` [Compound 15] stands less than 200 nM; under `CNC(=O)CCOc1nc(Nc2cc(OC)c(OC)c(OC)c2)ncc1Br` [Compound 316], less than 200 nM; under `Cc1cccc(Oc2nc(Nc3ccc4c(c3)CCC(=O)N4)ncc2C(F)(F)F)c1C` [Compound 83], less than 200 nM. Consider `O=C1CCc2cc(Nc3ncc(C(F)(F)F)c(OCc4ccccc4)n3)ccc2N1` [Compound 81], for which the IC50 was less than 200 nM. Consider `FC(F)(F)c1cnc(Nc2cncnc2)nc1NC1CC1` [Compound 203], for which the IC50 is less than 200 nM.

Turning to `CNC(=O)c1ccccc1Oc1nc(Nc2cccc(OC)c2OC)ncc1C(F)(F)F` [Compound 115a], the IC50 is greater than 2000 nM. The value for `CNC(=O)c1ccccc1Oc1nc(Nc2cccc(F)c2F)ncc1C(F)(F)F` [Compound 113] was greater than 2000 nM; that for `COc1ccc(C)c(Nc2ncc(Cl)c(Nc3nccc(C)n3)n2)c1` [Compound 55] was greater than 2000 nM; that for `COc1ccc(Nc2nc(Nc3cc(OC)c(OC)c(OC)c3)ncc2Cl)cn1` [Compound 24] was less than 200 nM. In the case of `CNC(=O)c1ccccc1Oc1nc(Nc2ccccc2)ncc1C(F)(F)F` [Compound 99], the IC50 is greater than 2000 nM. Consider `FC(F)(F)c1cnc(Nc2ccc(-n3cccc3)cc2)nc1Nc1ccc2c(c1)OCO2` [139*], for which the IC50 was less than 200 nM. The value for `COc1cc(Nc2ncc(Br)c(Oc3cccc4[nH]nnc34)n2)cc(OC)c1OC` [Compound 352] was greater than 2000 nM; that for `COc1cc(Nc2nc(-n3nnc4ccccc43)ncc2Br)cc(OC)c1OC` [Compound 331b] was 200 to 2000 nM. The value for `OC1Nc2ccc(Nc3ncc(C(F)(F)F)c(NC4CC4)n3)cc2O1` (stereo not shown) [Compound 208b] was less than 200 nM; that for `CCC(=O)c1ccccc1Oc1nc(Nc2cc(OC)c(OC)c(OC)c2)ncc1Br` [Compound 260] was less than 200 nM; that for `FC(F)(F)c1cnc(Nc2ccc3c(c2)OCO3)nc1Nc1ccc2c(c1)OCO2` [Compound 124c] was less than 200 nM. Under `CC(=O)NNc1nc(Nc2ccc3c(c2)CCC(=O)N3)ncc1C(F)(F)F` [Compound 350] stands greater than 2000 nM. Consider `CNC(=O)c1cccc(Nc2nc(Nc3ccc4c(c3)CCC(=O)N4)ncc2C(F)(F)F)c1` [Compound 128], for which the IC50 was less than 200 nM. With `O=C1CCc2cc(Nc3ncc(C(F)(F)F)c(NCCCNC(=O)C4CC4)n3)ccc2N1` [Compound 333], the IC50 was less than 200 nM. The value for `CNC(=O)c1ccccc1Oc1nc(Nc2cc(C)ccc2C)ncc1C(F)(F)F` [Compound 104] was greater than 2000 nM. The value for `O=C1CCc2cc(Nc3nc(NC4CCC4)ncc3C(F)(F)F)ccc2N1` [Compound 150b] was less than 200 nM; that for `FC(F)(F)c1cnc(Nc2cccnc2)nc1NC1CC1` [Compound 196] was greater than 2000 nM. Under `FC(F)(F)c1cnc(Nc2ccc(Nc3ncc(C(F)(F)F)c(NC4CC4)n3)cc2)nc1NC1CC1` [Compound 304b] stands greater than 2000 nM; under `CNC(=O)c1ccccc1Nc1nc(Nc2ccc(N3CCOCC3)cc2OC)ncc1Cl` [Compound 12], less than 200 nM.

For orientation: IC50 means the midpoint of a concentration-inhibition curve.

The values are drawn from patent US20230130766A1 (SALK INSTITUTE FOR BIOLOGICAL STUDIES, priority 2020, published 2023).
